Data taken from US11491169B2, “Remdesivir treatment methods” (Gilead Sciences, Inc., priority 2020, dated 2022).
Like-named read-outs stand apart in the source and are kept apart here.

How the values were obtained:
A549-hACE2 cells [1] = conditions: for Mean RDV-TP: human, 1 μM
SARS-CoV-2 = SARS-CoV-2 Nluc antiviral assay in A549-hACE2 cells; assay type: cell-based; conditions: for Nluc signal (SARS-CoV-2 replication): 10 μM of CQ or HCQ alone
HEp-2 cells [2] = system: HEp-2 cells
[3] = doses recommended under the former EUA guidance for COVID-19; cited from earlier work
[4] = system: respiratory syncytial virus (RSV); assay: microbe, parasite or virus in culture; assay type: cell-based; conditions: human respiratory syncytial virus, HEp-2, read-out: Formula Ia RSV EC50, HEp2 cells
Description: The cells were then infected with RSV A2 virus diluted in DMEM medium+GlutaMAX at an MOI=4 and incubated for 4 days at 37° C. and 5% CO2. The final volume in each well was 200 μL. Uninfected and untreated wells were included as controls for 100% cell viability. Following the incubation, 100 μL of culture supernatant was removed from each well and replaced with 100 μL of CellTiter-Glo reagent (Promega). The plates were then rocked for 2 minutes followed by a 10-minute incubation at 25° C. Cell viability was then assessed by measuring luminescence signal using and Envision plate reader. Values were normalized to the uninfected and infected DMSO controls (as 100% and 0% […], respectively) and data was fit using non-linear regression analysis with the XLfit software.

HEp-2 cells [5] = assay: Formula Ia triphosphate (RDV-TP) formation in HEp-2 cells, LC-MS/MS; conditions: 2 h
A549-hACE2 cells [6] = conditions: Formula Ia and HCQ combination concentrations analyzed (data not shown)
[7] = Severe acute respiratory syndrome coronavirus 2, read-out: SARS-CoV-2 Nluc EC50, A549-hACE2 cells, single agent + DMSO

For `CCN(CC)CCCC(C)Nc1ccnc2cc(Cl)ccc12` (centres unmarked) [CQ, N′-(7-chloroquinolin-4-yl)-N,N-diethyl-pentane-1,4-diamine, reference compound], the “Effect on Formula Ia-TP levels” value (A549-hACE2 cells [1]) was “did not significantly reduce”, the “Effect on production of Formula Ia-TP” value (A549-hACE2 cells [1]) was “did significantly lower” and the “Nluc signal (SARS-CoV-2 replication)” value (SARS-CoV-2; A549-hACE2 cells) was “fully suppressed”. The EC50 (SARS-CoV-2; [7]) was ~451 nM, the “Effect on Formula Ia-TP levels” value (NHBE cultures) was “not statistically significant” and the “Effect on formation of intracellular Formula Ia-TP” value (HEp-2 cells [2]) was “dose-dependent reduction”. The Average systemic exposures [3] was 610 to 760 nM.
In the case of `CCC(CC)COC(=O)[C@H](C)N[P@](=O)(OC[C@H]1O[C@@](C#N)(c2ccc3c(N)ncnn23)[C@H](O)[C@@H]1O)Oc1ccccc1` [Formula Ia, (S)-2-ethylbutyl 2-(((S)-(((2R,3S,4R,5R)-5-(4-aminopyn-olo[2,1-f][1,2,4]triazin-7-yl)-5-cyano-3,4-dihydroxytetrahydrofuran-2-yl)methoxy)(phenoxy)phosphoryl)amino)propanoate], the “Mean RDV-TP” value (A549-hACE2 cells [1]; 2 h) is reported as 3.6 ± 0.2 pmol/million cells, the “Mean RDV-TP” value (A549-hACE2 cells [1]; 24 h) is reported as 6.8 ± 1.3 pmol/million cells and the “Mean RDV-TP” value (A549-hACE2 cells [1]; 48 h) is reported as 3.0 ± 0.5 pmol/million cells. The EC50 (SARS-CoV-2; read-out: SARS-CoV-2 Nluc EC50, A549-hACE2 cells, + 10 nm HCQ) was 63.6 nM, the EC50 (SARS-CoV-2; read-out: SARS-CoV-2 Nluc EC50, A549-hACE2 cells, + 40 nm HCQ) was 50.7 nM and the EC50 (SARS-CoV-2; read-out: SARS-CoV-2 Nluc EC50, A549-hACE2 cells, + 640 nm CQ) was 46 nM. The EC50 (SARS-CoV-2; read-out: SARS-CoV-2 Nluc EC50, A549-hACE2 cells, + 2500 nm HCQ) was 63 nM, the EC50 ([4]; chloroquine 0 nM) was 49.5 ± 13.1 nM and the EC50 ([4]; chloroquine 10 nM) was 58.4 ± 12.8 nM. It also gave an EC50 ([4]; chloroquine 40 nM) of 72.1 ± 24.8 nM, an EC50 ([4]; chloroquine 160 nM) of 99.6 ± 30.3 nM and an EC50 ([4]; chloroquine 640 nM) of 138 ± 33.8 nM. The EC50 ([4]; chloroquine 2560 nM) was 209 ± 18.2 nM, the “Mean RDV-TP” value (HEp-2 cells [5]; 1 μM Formula Ia + 1 μM CQ) was “BLQ” and the “Mean RDV-TP” value (HEp-2 cells [5]; 1 μM Formula Ia + 1 μM HCQ) was “BLQ”. For the same molecule, the “Mean RDV-TP” value (HEp-2 cells [5]; 1 μM Formula Ia + 10 μM CQ) was “BLQ”, the “Mean RDV-TP” value (HEp-2 cells [5]; 1 μM Formula Ia + 10 μM HCQ) was “BLQ” and the “Mean RDV-TP” value (HEp-2 cells [5]; 1 μM Formula Ia alone) was “BLQ”.
With `CCN(CCO)CCCC(C)Nc1ccnc2cc(Cl)ccc12` (centres unmarked) [HCQ, 2-[{4-[(7-chloroquinolin-4-yl)amino]pentyl}(ethyl)amino]ethanol, reference compound] the “Nluc signal (SARS-CoV-2 replication)” value (SARS-CoV-2; A549-hACE2 cells) was “fully suppressed”, the EC50 (SARS-CoV-2; [7]) was ~365 nM and the Cytotoxicity (A549-hACE2 cells [6]) was “not observed”. For the same molecule, the Average systemic exposures [3] was “approximately 1.7 μM”.
